Like-named read-outs stand apart in the source and are kept apart here. Marks after values point to notes of the source that are not given here.
Tests used:
[1] = tested on: male Wiga Wistar rats; assay: Conditioned avoidance response (CAR) test; format: in vivo; settings: for ED50: Rattus norvegicus, po
Excerpt: The apparatus consisted of an inner box surrounded by an outer box. The inner box was composed of four walls of transparent, synthetic material (length×width×height: 30×30×30 cm), an open top, and a grid floor made of 15 pairs of iron bars (2 mm diameter; 6 mm inter-bar distance). Odd and even bars were connected with a source of alternative current (1.0 mA; Coulbourn Instruments Solid State Shocker/Distributor), which could be interrupted by a switch. The outer box was composed of the same material (length×width×height: 40×40×36 cm), also with an open top, with a distance of 5 cm between the inner and outer box on all sides. To decrease the amount of environmental stimuli, three walls of the outer box were made non-transparent. The front wall was left transparent to allow the necessary inspection of the animal during the test. The upper edge of the outer and inner box served as a target for the rats on which to jump with fore- and hind-paws, respectively.
From their arrival in the laboratory on the experimental day, male Wiga Wistar rats (230±30 g) were housed in individual cages provided with bedding material.
Latency to avoidance was recorded. The median avoidance response obtained over the three experimental sessions for each rat were used for further calculations.

[2] = target: T1, human mGluR2 receptor (Homo sapiens, UniProt Q14416); assay: [35S]GTPγS binding assay (PAM); format: biochemical; settings: in presence of glutamate at predetermined EC20, membranes from CHO cells transfected with human mGluR2; for EC50: read-out: GTPγS -hR2 PAM pEC50 (converted)
T1 construct: expressed in transfected cells; host or cells: CHO cells (membranes)
T1 sequence (Q14416 19-872): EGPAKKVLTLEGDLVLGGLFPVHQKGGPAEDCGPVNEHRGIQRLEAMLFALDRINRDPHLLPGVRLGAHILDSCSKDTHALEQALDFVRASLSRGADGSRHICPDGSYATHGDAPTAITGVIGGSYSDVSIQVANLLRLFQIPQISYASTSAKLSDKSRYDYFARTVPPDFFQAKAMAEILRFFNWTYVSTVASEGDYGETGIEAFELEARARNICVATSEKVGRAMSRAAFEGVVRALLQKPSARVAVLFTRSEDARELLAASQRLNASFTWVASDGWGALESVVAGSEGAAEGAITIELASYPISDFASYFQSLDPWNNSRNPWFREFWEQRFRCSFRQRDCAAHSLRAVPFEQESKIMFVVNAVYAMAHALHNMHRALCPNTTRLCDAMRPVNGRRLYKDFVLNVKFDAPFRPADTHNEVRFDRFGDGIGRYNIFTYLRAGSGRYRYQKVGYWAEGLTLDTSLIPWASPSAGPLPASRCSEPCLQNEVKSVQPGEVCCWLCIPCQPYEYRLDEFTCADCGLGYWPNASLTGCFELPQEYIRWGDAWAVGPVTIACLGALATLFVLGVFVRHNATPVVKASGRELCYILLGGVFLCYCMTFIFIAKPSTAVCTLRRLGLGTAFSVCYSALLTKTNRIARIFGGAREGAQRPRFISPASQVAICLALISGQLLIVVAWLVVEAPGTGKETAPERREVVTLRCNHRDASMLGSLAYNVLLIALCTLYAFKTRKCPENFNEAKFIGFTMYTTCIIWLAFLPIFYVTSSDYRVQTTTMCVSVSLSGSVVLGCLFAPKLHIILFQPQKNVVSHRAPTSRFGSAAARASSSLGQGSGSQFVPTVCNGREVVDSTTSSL
Method: [^35S]GTPγS binding assay
The [^35S]GTPγS binding assay is a functional membrane-based assay used to study G-protein coupled receptor (GPCR) function whereby incorporation of a non-hydrolysable form of GTP, [^35S]GTPγS (guanosine 5′-triphosphate, labelled with […] ^35S), is measured.
CHO-cells were cultured to pre-confluence and stimulated with 5 mM butyrate for 24 h, prior to washing in PBS, and then collected by scraping in homogenisation buffer (50 mM Tris-HCl buffer, pH 7.4, 4° C.). Cell lysates were homogenized briefly using an ultra-turrax homogenizer. The homogenate was centrifuged at 16,000 RPM (Sorvall RC-5C plus rotor SS-34) for 10 minutes and the supernatant discarded. The pellet was resuspended in 5 mM Tris-HCl, pH 7.4 and centrifuged again (18,000 RPM, 20 min, 4° C.). The final pellet was resuspended in 50 mM Tris-HCl, pH 7.4 and stored at −80° C. in appropriate aliquots before use. Protein concentration was determined by the Bradford method (Bio-Rad, USA) with bovine serum albumin as standard.
Measurement of mGluR2 positive allosteric modulatory activity of test compounds was performed as follows. Test compounds and glutamate were diluted in assay buffer containing 10 mM HEPES acid, 10 mM HEPES salt, pH 7.4, 100 mM NaCl, 3 mM MgCl2 and 10 μM GDP. Human mGlu2 receptor-containing membranes were thawed on ice and diluted in assay buffer supplemented with 14 μg/ml saponin. Membranes were pre-incubated with compound alone or together with a predefined (˜EC20) concentration of glutamate (PAM assay) for 30 min at 30° C. After addition of [^35S]GTPγS (f.c. 0.1 nM) microplates were shaken briefly and further incubated to allow [^35S]GTPγS incorporation on activation (30 minutes, 30° C.). Final assay mixtures contained 7 μg of membrane protein in 10 mM HEPES acid, 10 mM HEPES salt, pH 7.4, 100 mM NaCl, 3 mM MgCl2, 10 μM GDP and 10 μg/ml saponin. Total reaction volume was […] Reactions were terminated by rapid filtration through Unifilter-96 GF/B filter plates (Packard, Meriden, Conn.) using a 96-well Packard filtermate harvester. Filters were washed 6 times with ice-cold 10 mM NaH2PO4/10 mM Na2HPO4, pH 7.4. Filters were then air-dried, and 40 μl of liquid scintillation cocktail (Microscint-O) was added to each well. Membrane-bound radioactivity was counted in a Microplate Scintillation and Luminescence Counter from Packard.
obtained in the presence of EC20 of mGluR2 agonist glutamate to determine positive allosteric modulation (PAM)—were generated using the Lexis software interface (developed at J&J). Data were calculated as % of the control glutamate response, defined as the maximal response that is generated upon addition of glutamate alone. Sigmoid concentration-response curves plotting these percentages versus the log concentration of the test compound were analyzed using non-linear regression analysis. The concentration producing half-maximal effect is then calculated as EC50.
All compounds were tested in presence of mGluR2 agonist, glutamate at a predetermined EC20 concentration, to determine positive allosteric modulation (GTPγS-PAM). pEC50 values were calculated from a concentration-response experiment of at least 10 concentrations.

[3] = tested on: male NMRI mice; assay: Phencyclidine (PCP)-induced hyperlocomotion in mice; format: in vivo; settings: for ED50: Mus musculus; for ED50 PCP-Inh. (estimated): estimated ED50 (n = 3 per dose; 4-fold separation between doses)
Method: On the day of experiments, the mice were brought into the procedural room. They were housed individually and allowed to acclimate for at least a half hour prior to testing. Although the studies were conducted during the light cycle (from 8:00 to 16:00 h), the procedure room was only sparsely lit (3 to 30 LUX) to provide better contrast for the video tracking. Local lighting was used for the injection procedures. During each trial, an individual mouse was placed in an open field arena (grey PVC cylinder with a height of 40 cm and a diameter of 22.5 cm). Each arena was placed on an infrared LED (8×8 LEDs)-lit box (white PVC squared box; 40×40 cm^2; height 12.5 cm). Each mouse was placed in the center of the arena and allowed to explore freely for 30 min. After each trial, the arena was cleaned with a wet and subsequently with a dry cleaning cloth. An infrared sensitive tube camera and a white light source (in arena: 4-7 LUX) were mounted to the ceiling above the observation chamber to record and input activity to a computer. Animal behavior was recorded and analyzed using the Noldus Ethovision XT Video Tracking System (Version 3.1; Noldus, Wageningen, The Netherlands). The total distance traveled (cm) was calculated. Data were then exported to data management systems for further analysis and reporting.
Test compound or solvent was administered at a pre-defined time before measurement (standard: 30 min) to male NMRI mice that were challenged with phencyclidine (PCP; 5 mg/kg, s.c.) 30 min before measurement. Activity was measured for a period of 30 min.

[4] = tested on: Male mice (C57BL/6); assay: Reversal of memantine-induced brain activation ([14C]2DG uptake) in mice; format: in vivo; settings: for L.A.D. (lowest active dose) for significant (p<0.05) reduction of 2DG uptake in the hippocampus compared to memantine response: mice, s.c., memantine 20 mg/kg s.c.
Method: Reversal of Memantine-Induced Brain Activation in Mice NMDA receptor hypofunction is hypothesized to be involved in schizophrenia.
Autoradiographic assessment of radiolabeled [^14C]-2-deoxyglucose ([^14C]2DG) uptake is commonly used to investigate brain activation. In humans, cerebral blood flow is increased in specific brain regions after administration of a subanaesthetic dose of ketamine.
Male mice (C57BL/6, weight 24-28 g, fasted overnight; n=10 animals per group) were treated with vehicle or test compound (s.c.) in randomized order (t=0 min). Memantine (20 mg/kg, s.c.) was injected 30 min later (t=30 min). At t=45 min, [^14C]2DG (0.16 μCi/g) was administered intraperitoneally (i.p.), followed by a 45 min uptake period. Animals were decapitated (t=90 min), plasma glucose levels measured, the brain removed, rapidly frozen and stored at −20° C. until sectioned. Brain sections were exposed together to a precalibrated [^14C]standard on film, which was developed after four days of exposure. Local tissue [^14C]concentration (nCi/mg tissue equivalent—TEQ-) in each region of interest was determined.
Data was analyzed statistically using a two-way ANOVA analysis followed by post-hoc tests (memantine response versus reversal by the compound). The results are shown in table 5 below, expressed as lowest active dose (L.A.D.) required to exert a statistically significant (p<0.05) reduction of 2DG uptake in the hippocampus compared to memantine response.

[5] = compound administered orally, criterion median avoidance latency >8 s
[6] = sc, read-out: ED50 PCP-Inh. (estimated)
[7] = mice, PCP 5 mg/kg s.c., criterion total distance <5500 counts, not marked as oral, read-out: ED50 PCP-Inh.
[8] = compound administered orally, criterion median avoidance latency >8 s, read-out: ED50 CAR-Inh.

SMILES	GTPγS -hR2 PAM pEC50 [2]	EC50 [2] [nM]	melting point [°C]	L.A.D. (lowest active dose) for significant (p<0.05) reduction of 2DG uptake in the hippocampus compared to memantine response [4]	ED50 [3, 7] [mg/kg]	also measured
Cc1cc(Oc2ccc(-c3ccn4c(CC5CC5)nnc4c3Cl)cc2F)ccn1 [Co. No. 15]	6.65	–	–	≦10 mg/kg	–	ED50 CAR-Inh. [1, 5]: ≧40*^ mg/kg; ED50 PCP-Inh. ([3]; mice, PCP 5 mg/kg s.c., criterion total distance <5500 counts, not marked as oral): 20 mg/kg
Cc1ccc(Oc2ccc(-c3ccn4c(CC5CC5)nnc4c3C(F)(F)F)cc2F)c(C)n1 [Co. No. 4]	–	10.2	–	≦10 mg/kg	15.2	ED50 ([1]; compound administered orally, estimated ED50 (n = 3 per dose; 4-fold separation between doses), read-out: ED50 CAR-Inh. (estimated)): 20 mg/kg; ED50 ([1]; not marked as oral, estimated ED50 (n = 3 per dose; 4-fold separation between doses), read-out: ED50 CAR-Inh. (estimated)): 7.9 mg/kg
O=C(CCCN1CCC(O)(c2ccc(Cl)cc2)CC1)c1ccc(F)cc1 [haloperidol, reference compound]	–	–	–	–	–	effect on memantine-induced brain glucose metabolism / 2DG uptake (in words) ([4]; mouse brain): inactive
Cc1ccc(Oc2ccc(-c3ccn4c(CC5CC5)nnc4c3Cl)cc2F)c(C)n1 [Co. No. 14, 8-Chloro-3-cyclopropylmethyl-7-{4-[(2,6-dimethylpyridin-3-yl)oxy]-3-fluorophenyl}[1,2,4]triazolo[4,3-a]pyridine]	–	42.7	207.2	–	18	ED50 [1, 8]: 24.6 mg/kg
Cc1ccc(Oc2ccc(-c3ccn4c(CC(F)(F)F)nnc4c3Cl)cc2F)c(C)n1 [Co. No. 3, 7-[3-Fluoro-4-(2′,6′-dimethyl-pyridin-3-yloxy)-phenyl]-8-chloro-3-(2,2,2-trifluoro-ethyl)-1,2,4-triazolo[4,3-a]pyridine]	–	45.7	164.5	–	16.2	ED50 [1, 8]: 24.6 mg/kg; ED50 ([1]; not marked as oral, criterion median avoidance latency >8 s, read-out: ED50 CAR-Inh.): 18.6 mg/kg
FC(F)(F)Cc1nnc2c(Cl)c(-c3ccc(OC4CCOCC4)c(Cl)c3)ccn12 [Co. No. 7, 7-(3-Chloro-4-pyranyl-4-oxy-phenyl)-8-chloro-3-(2,2,2-trifluoro-ethyl)-1,2,4-triazolo[4,3-a]pyridine]	–	174	186.7	–	10	–

Further lines, with some results ahead:

GTPγS -hR2 PAM pEC50 [2]	EC50 [2] [nM]	melting point [°C]	SMILES	L.A.D. (lowest active dose) for significant (p<0.05) reduction of 2DG uptake in the hippocampus compared to memantine response [4]	ED50 [3, 7] [mg/kg]	also measured
8.38	–	–	FC(F)(F)c1c(-c2ccc(Oc3ccnc(C4CC4)c3)c(Cl)c2)ccn2c(CC3CC3)nnc12 [Co. No. 54]	–	–	ED50 CAR-Inh. [1, 5]: >40* mg/kg
–	170	144	CCOCc1nnc2c(C)c(-c3ccc(Oc4ccc(C)nc4C)c(F)c3)ccn12 [Co. No. 42, 8-Methyl-3-ethoxymethyl-7-{3-fluoro-4-[(2,6-dimethylpyridin-3-yl)oxy]phenyl}[1,2,4]triazolo[4,3-a]pyridine]	5 mg/kg	–	ED50 [3, 6]: 20 mg/kg
–	17.8	211.1	Fc1cc(-c2ccn3c(CC4CC4)nnc3c2C(F)(F)F)ccc1Oc1ccnc(C2CC2)c1 [Co. No. 46, 3-Cyclopropylmethyl-7-[4-(2-cyclopropyl-pyridin-4-yloxy)-3-fluoro-phenyl]-8-trifluoromethyl-[1,2,4]triazolo[4,3-a]pyridine]	≦10 mg/kg	–	ED50 [3, 6]: 20 mg/kg
7.90	–	–	COc1ccc(CNc2ccc(-c3ccn4c(CC5CC5)nnc4c3C(F)(F)F)cc2)cn1 [Co. No. 58]	–	–	ED50 CAR-Inh. [1, 5]: ≧40*^ mg/kg
–	145	> 300	CCc1cc(Oc2ccc(-c3ccn4c(CC5CC5)nnc4c3Cl)cc2F)ccn1 [Co. No. 48, 3-Cyclopropylmethyl-7-[4-(2-ethyl-pyridin-4-yloxy)-3-fluoro-phenyl]-8-chloro-[1,2,4]triazolo[4,3-a]pyridine]	≦10 mg/kg	–	ED50 [3, 6]: 12.6 mg/kg
6.59	–	–	FC(F)(F)c1c(-c2ccc(N3CCNCC3)c(Cl)c2)ccn2c(CC3CC3)nnc12 [Co. No. 73]	–	–	ED50 PCP-Inh. (estimated) ([3]; mice, PCP 5 mg/kg s.c.): 12.6^a) mg/kg
7.03	–	–	Fc1cnccc1Oc1ccc(-c2ccn3c(CC4CC4)nnc3c2C(F)(F)F)cc1 [Co. No. 63]	–	–	ED50 PCP-Inh. (estimated) ([3]; mice, PCP 5 mg/kg s.c.): 1.58^a) mg/kg

— patent US8716480B2, “7-aryl-1,2,4-triazolo[4,3-a]pyridine derivatives and their use as positive allosteric modulators of mGluR2 receptors” (Janssen Pharmaceuticals, Inc., priority 2009, dated 2014)
